Molecules are shown by their SMILES.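 Compound exposure: 48 hours, 5 concentrations, 96-well plates. Abbreviation: GI50, concentration required for 50% inhibition of growth.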 Calls of active or inactive are those of the source. Rule as the data show it: active = GI50 up to about 1.1 µM and inactive = higher.

Some test systems named below: A498; ACHN; BT-549; CAKI-1; EKVX; HCC 2998; HCT-15; HOP-62; KM12; M14; MDA-MB-231; MDA-MB-435; NCI/ADR-RES; PC-3; SK-MEL-5; SW-620; TK-10; UACC-62; SF-295.
What all share (experiment): NCI-60 cell line screen, 48 h

As for `COc1ccc(OC)c(CC2CCc3nc(N)nc(N)c3C2)c1` (stereo unspecified), the GI50 was 23.1 µM (inactive) with A498; < 0.0284 µM (active) in the experiment with ACHN; 0.146 µM (active) in the experiment with BT-549; 27.1 µM (inactive) in the experiment on CAKI-1; 15.6 µM (inactive) in the experiment with EKVX; 0.69 µM (active) in the experiment with HCC 2998. The GI50 was less than 0.0435 µM in the experiment with HCT-15; 4.27 µM (inactive) with HOP-62; 1.56 µM (inactive) in the experiment with KM12; 0.342 µM (active) with M14; 25.4 µM (inactive) in the experiment with MDA-MB-231; 12.6 µM (inactive) in the experiment with MDA-MB-435. For the same compound, the GI50 was 2.8 µM (inactive) with NCI/ADR-RES; 0.0316 µM (active) in the experiment on PC-3; < 0.019 µM (active) in the experiment with SK-MEL-5; 0.286 µM (active) with SW-620; 8.32 µM (inactive) in the experiment on TK-10; < 0.0133 µM (active) in the experiment with UACC-62.
As for `CC(=O)OCC(Br)C1(C)CCC(C(C)(C)Br)O1` (stereo unspecified), the GI50 is > 100 µM (inactive) with A498; 94.8 µM (inactive) in the experiment with ACHN; 79.6 µM (inactive) in the experiment with BT-549; > 100 µM (inactive) with CAKI-1; > 100 µM (inactive) with EKVX; 98.6 µM (inactive) with HCC 2998. Also, the GI50 was > 100 µM (inactive) in the experiment on HOP-62; 39.8 µM (inactive) in the experiment on KM12; 89.7 µM (inactive) with M14; > 100 µM (inactive) with MDA-MB-231; 69.5 µM (inactive) in the experiment on MDA-MB-435; > 100 µM (inactive) with NCI/ADR-RES. Moreover, the GI50 is 29.4 µM (inactive) in the experiment on PC-3; > 100 µM (inactive) in the experiment with SF-295; 35.9 µM (inactive) with SK-MEL-5; 55.6 µM (inactive) in the experiment with SW-620; > 100 µM (inactive) in the experiment on TK-10.
For `CC1(C)N=C(N)N=C(N)N1CCCCc1ccccc1`, the GI50 in the experiment on A498 is 2.08 µM (inactive); with ACHN, 1.48 µM (inactive); in the experiment with BT-549, 2.16 µM (inactive); in the experiment with CAKI-1, 7.94 µM (inactive); in the experiment on EKVX, 2.21 µM (inactive); with HCC 2998, 13.3 µM (inactive). The GI50 in the experiment with HCT-15 was 2.92 µM; with HOP-62 it was 1.18 µM (inactive); with KM12, 0.689 µM (active); in the experiment on M14 it was 0.181 µM (active); with MDA-MB-231, > 64.9 µM (inactive); with MDA-MB-435, 0.155 µM (active). The GI50 is > 90.2 µM (inactive) in the experiment on NCI/ADR-RES; 9.51 µM (inactive) in the experiment with PC-3; 0.145 µM (active) in the experiment with SF-295; 0.59 µM (active) in the experiment with SK-MEL-5; 1.19 µM (inactive) in the experiment with TK-10; 0.453 µM (active) in the experiment with UACC-62.
`COc1cc(/C=C2\N=C(c3ccccc3)N(c3nc4ccccc4s3)C2=O)cc(OC)c1OC`: the GI50 was 52.7 µM (inactive) with A498; 20.6 µM (inactive) in the experiment with ACHN; 17.5 µM (inactive) in the experiment with BT-549; 70.6 µM (inactive) in the experiment with CAKI-1; 21.8 µM (inactive) in the experiment with EKVX; 27.4 µM (inactive) in the experiment on HCC 2998. Besides, the GI50 is 30.3 µM in the experiment with HCT-15; 24.4 µM (inactive) with HOP-62; 31.3 µM (inactive) in the experiment on KM12; 31.4 µM (inactive) with M14; 40.3 µM (inactive) with MDA-MB-231; 15.6 µM (inactive) with MDA-MB-435. In addition, the GI50 was 20.4 µM (inactive) with NCI/ADR-RES; 50.5 µM (inactive) with PC-3; 39.5 µM (inactive) with SF-295; 49.9 µM (inactive) in the experiment with SK-MEL-5; 31.3 µM (inactive) in the experiment with SW-620; > 100 µM (inactive) with TK-10.

Values taken from ChEMBL document CHEMBL1201862, “PubChem BioAssay data set” (2004).
